Reference: ChEMBL document CHEMBL4339234, “Synthesis and in vitro biological evaluation of new P2X7R radioligands [11C]halo-GSK1482160 analogs” (Bioorg Med Chem Lett, 2019)
pIC50, pKi: −log10 of the molar value.

How the values were obtained:
[1] = biological target: T1, P2X purinoceptor 7 (Homo sapiens, UniProt Q99572); test: Competitive displacement of [11C]GSK1482160 from human recombinant P2X7 receptor expressed in HEK293 cell membranes incubated for 30 mins by scintillation counting method based radioligand competitive binding assay
T1 sequence (Q99572 whole entry): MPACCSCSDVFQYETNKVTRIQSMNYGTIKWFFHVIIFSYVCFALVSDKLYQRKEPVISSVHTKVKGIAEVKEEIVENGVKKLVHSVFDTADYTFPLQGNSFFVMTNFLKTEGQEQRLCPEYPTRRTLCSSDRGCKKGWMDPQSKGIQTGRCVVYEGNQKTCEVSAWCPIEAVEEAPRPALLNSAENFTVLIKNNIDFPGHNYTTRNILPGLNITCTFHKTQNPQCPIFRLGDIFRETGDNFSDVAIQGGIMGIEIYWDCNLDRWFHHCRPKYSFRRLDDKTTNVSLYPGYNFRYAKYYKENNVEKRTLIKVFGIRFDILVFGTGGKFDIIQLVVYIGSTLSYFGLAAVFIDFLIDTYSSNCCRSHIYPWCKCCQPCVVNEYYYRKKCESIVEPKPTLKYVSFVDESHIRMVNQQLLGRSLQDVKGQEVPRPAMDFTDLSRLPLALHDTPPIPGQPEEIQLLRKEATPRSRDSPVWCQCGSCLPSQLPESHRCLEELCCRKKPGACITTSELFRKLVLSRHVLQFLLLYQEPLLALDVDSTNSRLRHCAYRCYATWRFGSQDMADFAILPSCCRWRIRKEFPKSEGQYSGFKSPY

[2] = biological target: T1, P2X purinoceptor 7; test: Displacement of [11C]GSK1482160 from human recombinant P2X7 receptor expressed in HEK293 cell membranes incubated for 30 mins by scintillation counting method based radioligand competitive binding assay

| pKi [1] | pIC50 [2] | SMILES |
| --- | --- | --- |
| 7.27 | 6.82 | CN1C(=O)CC[C@H]1C(=O)NCc1cccc(C(F)(F)F)c1F |
| 8.60 | 8.15 | CN1C(=O)CC[C@H]1C(=O)NCc1cccc(C(F)(F)F)c1Br |
| 8.72 | 8.28 | CN1C(=O)CC[C@H]1C(=O)NCc1cccc(C(F)(F)F)c1I |
| 8.51 | – | CN1C(=O)CC[C@H]1C(=O)NCc1cccc(C(F)(F)F)c1Cl [GSK1482160] |
